Structures are written as SMILES. Like-named read-outs stand apart in the source and are kept apart here.

The source of these data is patent US11731943B2, “Therapeutic compounds, compositions and methods of use thereof” (priority 2016, dated 2023).

Assay [1] concerns the target isolated recombinant JAK1 kinase domain (Homo sapiens (Human), UniProt P23458). Description: JAK1 enzyme assay (Caliper LabChip, Ki). It is filed as biochemical. Summed up:
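Ki derived via Morrison tight-binding model, ATP-competitive correction applied. Read-out: product/total ratio of a 5-carboxyfluorescein-tagged JAK3 peptide separated on Caliper LabChip after phosphorylation by isolated human JAK1 kinase domain (22 °C, 30 min; EDTA quench, 50 mM final).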

In assay [2] the target is isolated recombinant JAK2 kinase domain (Homo sapiens (Human), UniProt O60674). Description: JAK2 enzyme assay (Caliper LabChip, Ki). It is filed as biochemical. Summed up:
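Caliper LabChip readout of phosphorylated product as a fraction of total substrate, a fluorescently N-terminally labelled JAK3-derived peptide. Isolated human JAK kinase domains were incubated 30 min at 22 °C before EDTA quench (50 mM final).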

In assay [3] the test system is JAK1-dependent STAT6 phosphorylation downstream of IL-13 stimulation in BEAS-2B human bronchial epithelial cells. The experiment in a line: JAK1 pathway assay in BEAS-2B cells (IL-13-pSTAT6, MSD). It counts as cell-based. Particulars: Homo sapiens, BEAS-2B, BEAS-2B cells, IL-13 stimulation; read-out: IL-13 p-STAT6 BEAS-2B IC50. The protocol:
JAK1 Pathway Assay in Cell Lines was carried out as follows:
Inhibitor potency (EC50) was determined in cell-based assays designed to measure JAK1 dependent STAT phosphorylation.
In one assay approach, TF-1 human erythroleukemia cells obtained from the American Type Culture Collection (ATCC; Manassas, Va.) were used to measure JAK1-dependent STAT6 phosphorylation downstream of IL-13 stimulation. Prior to use in the assays, TF-1 cells were starved of GM-CSF overnight in OptiMEM medium (Life Technologies, Grand Island, N.Y.) supplemented with 0.5% charcoal/dextran stripped fetal bovine serum (FBS), 0.1 mM non-essential amino acids (NEAA), and 1 mM sodium pyruvate. The assays were run in 384-well plates in serum-free OptiMEM medium using 300,000 cells per well. In a second assay approach, BEAS-2B human bronchial epithelial cells obtained from ATCC were plated at 100,000 cells per well of a 96-well plate one day prior to the experiment. The BEAS-2B assay was run in complete growth medium (bronchial epithelial basal medium plus bulletkit; Lonza; Basel, Switzerland).
Test compounds were serially diluted 1:2 in DMSO and then diluted 1:50 in medium just before use. Diluted compounds were added to the cells, for a final DMSO concentration of 0.2%, and incubated for 30 min (for the TF-1 assay) or 1 hr (for the BEAS-2B assay) at 37° C. Then, cells were stimulated with human recombinant cytokine at their respective EC90 concentrations, as previously determined for each individual lot. Cells were stimulated with IL-13 (R&D Systems, Minneapolis, Minn.) for 15 min at 37° C. The TF-1 cell reactions were stopped by the direct addition of 10× lysis buffer (Cell Signaling Technologies, Danvers, Mass.), whereas the BEAS-2B cell incubations were halted by the removal of medium and addition of 1× lysis buffer. The resultant samples were frozen in the plates at −80° C. Compound mediated inhibition of STATE phosphorylation was measured in the cell lysates using MesoScale Discovery (MSD) technology (Gaithersburg, Md.).

isolated recombinant JAK2 kinase domain, sequence (O60674 849-1124): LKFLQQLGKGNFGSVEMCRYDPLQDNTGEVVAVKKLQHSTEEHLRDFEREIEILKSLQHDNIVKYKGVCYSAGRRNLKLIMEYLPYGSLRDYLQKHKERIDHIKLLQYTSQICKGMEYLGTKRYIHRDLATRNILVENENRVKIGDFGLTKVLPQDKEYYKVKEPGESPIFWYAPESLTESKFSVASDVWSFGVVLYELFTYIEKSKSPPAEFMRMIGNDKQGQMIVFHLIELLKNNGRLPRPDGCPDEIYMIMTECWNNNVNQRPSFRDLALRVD
isolated recombinant JAK1 kinase domain, sequence (P23458 875-1153): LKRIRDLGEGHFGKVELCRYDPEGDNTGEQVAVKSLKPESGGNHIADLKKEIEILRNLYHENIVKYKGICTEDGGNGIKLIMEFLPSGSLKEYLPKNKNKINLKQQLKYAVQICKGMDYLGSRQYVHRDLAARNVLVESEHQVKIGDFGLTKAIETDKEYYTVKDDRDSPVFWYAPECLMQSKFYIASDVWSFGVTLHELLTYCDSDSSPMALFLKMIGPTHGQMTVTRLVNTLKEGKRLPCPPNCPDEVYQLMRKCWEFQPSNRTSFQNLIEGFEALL

`C#Cc1ccc(OC2(C)CN(C3CCC(CC#N)(n4cc(C(N)=O)c(NC(=O)C5CC5)n4)CC3)C2)cc1` (stereo not shown) [Example 294, 1-(1-(Cyanomethyl)-4-(3-(4-ethynylphenoxy)-3-methylazetidin-1-yl)cyclohexyl)-3-(cyclopropanecarboxamido)-1H-pyrazole-4-carboxamide]: the Ki (commonly a measure of affinity in units of concentration, obtained from inhibition or displacement) worked out at 0.74 nM in assay [1] (read-out: JAK1 Ki) and 1.1 nM in assay [2]. In assay [3], the IC50 (usually the midpoint of a concentration-inhibition curve) stood at 47 nM.
As for `COC(=O)Nc1nn(C2(CC#N)CCN(Cc3ccc(-c4ccoc4)c(O)c3)CC2F)cc1C(N)=O` (stereo not shown) [Example 244, methyl N-[4-carbamoyl-1-[4-(cyanomethyl)-3-fluoro-1-[[4-(3-furyl)-3-hydroxy-phenyl]methyl]-4-piperidyl]pyrazol-3-yl]carbamate], the values for the Ki in assay [1] (read-out: JAK1 Ki) and in assay [2] were 0.2 nM and 0.37 nM, respectively. For the same compound, the IC50 in assay [3] was determined as 67 nM.
With `N#CCC1(n2cc(C(N)=O)c(NC(=O)C3CC3)n2)CCC(N2CC(F)(c3ccccc3)C2)CC1` (stereo not shown) [Example 205, 1-[1-(cyanomethyl)-4-(3-fluoro-3-phenyl-azetidin-1-yl)cyclohexyl]-3-(cyclopropanecarbonylamino) pyrazole-4-carboxamide], the results for the Ki in assay [1] (read-out: JAK1 Ki) and in assay [2] were 0.89 nM and 5.9 nM, respectively. Also, the IC50 in assay [3] was determined as 82 nM.
Consider `Cc1cc(CN2CCC(CC#N)(n3cc(C(N)=O)c(NC(=O)C4CC4)n3)CC2)ccc1-c1ccccc1` [Example 160, 1-[4-(cyanomethyl)-1-[(3-methyl-4-phenyl-phenyl)methyl]-4-piperidyl]-3-(cyclopropanecarbonylamino) pyrazole-4-carboxamide], for which the Ki in assay [1] (read-out: JAK1 Ki) was determined as 3.2 nM; in assay [2], 12 nM. Further, in assay [3], the IC50 worked out at 186 nM.
The like results for `CN(C)C(=O)c1cccc(-c2ccc(CN3CCC(CC#N)(n4cc(C(N)=O)c(NC(=O)C5CC5)n4)CC3)cc2)c1` [Example 145, 1-[4-(cyanomethyl)-1-[[4-[3-(dimethylcarbamoyl)phenyl]phenyl]methyl]-4-piperidyl]-3-(cyclopropanecarbonylamino) pyrazole-4-carboxamide] were, in that order, 3.1 nM, 15.5 nM and above 1000 nM.
For the compound `N#CCC1(n2cc(C(N)=O)c(NC(=O)C3CC3)n2)CCN(Cc2ccc(-n3nccn3)c(O)c2)CC1F` (stereo not shown) [Example 286, 1-[4-(cyanomethyl)-3-fluoro-1-[[3-hydroxy-4-(triazol-2-yl)phenyl]methyl]-4-piperidyl]-3-(cyclopropanecarbonylamino) pyrazole-4-carboxamide], the Ki in assay [1] (read-out: JAK1 Ki) stood at 0.43 nM; in assay [2], 0.4 nM. Moreover, in assay [3], the IC50 amounted to 52 nM.
Regarding `COC1CN([C@H]2CC[C@@](CC#N)(n3cc(C(N)=O)c(NC(=O)C4CC4)n3)CC2)C1` [Example 102], the results for the Ki in assay [1] and in assay [2] were 3.3 nM and 31.8 nM, respectively. The IC50 in assay [3] is 933 nM.
For `COC(=O)Nc1nn(C2(CC#N)CCN(Cc3cc(O)c(-c4ccoc4)cc3F)CC2F)cc1C(N)=O` (stereo not shown) [Example 237, methyl N-[4-carbamoyl-1-[4-(cyanomethyl)-3-fluoro-1-[[2-fluoro-4-(3-furyl)-5-hydroxy-phenyl]methyl]-4-piperidyl]pyrazol-3-yl]carbamate], the Ki in assay [1] (read-out: JAK1 Ki) was found to be 0.22 nM; in assay [2], 0.3 nM. The 50% inhibitory concentration (IC50) in assay [3] turned out to be 27 nM.
The like results for `COC(=O)Nc1nn(C2(CC#N)CCN(Cc3ccc(-c4ccccc4)nc3F)CC2F)cc1C(N)=O` (stereo not shown) [Example 203, methyl N-[4-carbamoyl-1-[4-(cyanomethyl)-3-fluoro-1-[(2-fluoro-6-phenyl-3-pyridyl)methyl]-4-piperidyl]pyrazol-3-yl]carbamate] were, in that order, 0.25 nM, 0.22 nM and 15 nM.
For the compound `CN(CC(F)(F)F)[C@H]1CC[C@](CC#N)(n2cc(C(N)=O)c(NC(=O)C3CC3)n2)CC1` [Example 129], the inhibitory constant (Ki) in assay [1] worked out at 3.3 nM; in assay [2], 16.3 nM. In assay [3], the IC50 is 393 nM.
As for `COC(=O)Nc1nn(C2(CC#N)CCN(Cc3ccc(-n4nccn4)c(O)c3)CC2F)cc1C(N)=O` (stereo not shown) [Example 287, methyl N-[4-carbamoyl-1-[4-(cyanomethyl)-3-fluoro-1-[[3-hydroxy-4-(triazol-2-yl)phenyl]methyl]-4-piperidyl]pyrazol-3-yl]carbamate], the Ki is 0.35 nM in assay [1] (read-out: JAK1 Ki) and 0.43 nM in assay [2]. Also, in assay [3], the IC50 came out at 32 nM.
In the case of `N#CCC1(n2cc(C(N)=O)c(NC(=O)C3CC3)n2)CCN(Cc2ccc(-c3ccccn3)cc2)CC1` [Example 185, 1-[4-(cyanomethyl)-1-[[4-(2-pyridyl)phenyl]methyl]-4-piperidyl]-3-(cyclopropanecarbonylamino) pyrazole-4-carboxamide], in assay [1] (read-out: JAK1 Ki), the Ki was 2.3 nM. Besides, the IC50 in assay [3] was determined as 209 nM.
Regarding `N#CC[C@]1(n2cc(C(N)=O)c(NC(=O)C3CC3)n2)CC[C@@H](NCC(F)(F)F)CC1` (single isomer, unassigned) [Example 1], the inhibition constant (Ki) in assay [1] was above 562 nM; in assay [2], 252 nM. Further, the IC50 in assay [3] is above 1000 nM.
`N#CCC1(n2cc(C(N)=O)c(NC(=O)C3CC3)n2)CCN(Cc2cnn(-c3ccccc3)c2)CC1` [Example 90]: the Ki was found to be 7.2 nM in assay [1] (read-out: JAK1 Ki) and 133 nM in assay [2].
The like results for `N#CC[C@]1(n2cc(C(N)=O)c(NC(=O)C3CC3)n2)CC[C@H](N2CC(O)(C(F)(F)F)C2)CC1` [Example 138, 1-[1-(cyanomethyl)-4-[3-hydroxy-3-(trifluoromethyl)azetidin-1-yl]cyclohexyl]-3-(cyclopropanecarbonylamino) pyrazole-4-carboxamide] were, in that order, above 562 nM and above 319 nM.
The like results for `N#CCC1(n2cc(C(N)=O)c(NC(=O)C3CC3)n2)CCN(CCC(F)(F)F)CC1` [Example 96] were, in that order, 24.1 nM and 113 nM.
As to `N#CC[C@]1(n2cc(C(N)=O)c(NC(=O)C3CC3)n2)CC[C@@H](NCc2ccc(C#N)cc2)CC1` [Example 122], the Ki was 562 nM in assay [1] and above 319 nM in assay [2].
The like results for `N#CCC1(n2cc(C(N)=O)c(NC(=O)C3CC3)n2)CCN(Cc2cccc(-c3ccccc3)c2)CC1` (racemic) [Example 37] were, in that order, 34.6 nM and 268 nM.
As for `CC(C)OC1(C(F)(F)F)CN([C@H]2CC[C@](CC#N)(n3cc(C(N)=O)c(NC(=O)C4CC4)n3)CC2)C1` [Example 136], the Ki was 463 nM in assay [1] (read-out: JAK1 Ki) and above 319 nM in assay [2].
The like results for `N#CCC1(n2cc(C(N)=O)c(NC(=O)C3CC3)n2)CCN(Cc2ccccc2Br)CC1` [Example 50] were, in that order, 6.2 nM and 66.4 nM.
As to `N#CC[C@]1(n2cc(C(N)=O)c(NC(=O)C3CC3)n2)CC[C@H](NCc2ccc(Cl)cc2)CC1` [Example 119], the Ki in assay [1] is 437 nM; in assay [2], above 319 nM.
In the case of `N#CCC1(n2cc(C(N)=O)c(NC(=O)C3CC3)n2)CCN(Cc2ccc(-c3ccncc3)cc2)CC1` [Example 159, 1-[4-(cyanomethyl)-1-[[4-(4-pyridyl)phenyl]methyl]-4-piperidyl]-3-(cyclopropanecarbonylamino) pyrazole-4-carboxamide], the Ki in assay [1] (read-out: JAK1 Ki) amounted to 19 nM; in assay [2], 101 nM.
For the compound `CNC(=O)Nc1cn(C2(CC#N)CCN(CC(F)(F)F)CC2)nc1C(N)=O` [Example 3, 1-(4-(Cyanomethyl)-1-(2,2,2-trifluoroethyl)piperidin-4-yl)-4-(3-methylureido)-1H-pyrazole-3-carboxamide], the Ki in assay [1] (read-out: JAK1 Ki) was 6.4 nM; in assay [2] it was 15.7 nM.
As for `CC1(C)CN([C@H]2CC[C@](CC#N)(n3cc(C(N)=O)c(NC(=O)C4CC4)n3)CC2)C1` [Example 105], the results for the Ki in assay [1] and in assay [2] were above 562 nM and above 319 nM, respectively.
For `CC(C)(C)OC(=O)N[C@H]1CC[C@@](CC#N)(n2cc(C(N)=O)c(NC(=O)C3CC3)n2)CC1` [Example 36], the Ki is above 562 nM in assay [1] and above 319 nM in assay [2].
Consider `COc1ccccc1CN1CCC(CC#N)(n2cc(C(N)=O)c(NC(=O)C3CC3)n2)CC1` [Example 41], for which the results for the Ki in assay [1] (read-out: JAK1 Ki) and in assay [2] were 53.8 nM and above 319 nM, respectively.
